In experiment [1] the test system is induction of TAT by dexamethasone in HepG2 cells. In words: Hep G2 TAT assay (inhibition of dexamethasone-induced TAT). In kind it is cell-based, human. The settings on record: challenge of 100 nM dexamethasone, IC50 converted to Ki by Cheng and Prusoff equation.
The target in experiment [2] is glucocorticoid receptor (GR) recombinant ligand binding domain (LBD) (Homo sapiens (Human), UniProt P04150). Nature of the experiment: GR binding fluorescence polarisation (FP) assay. The following applies: displacement of fluorescently tagged ligand. The procedure: Binding of test compounds to the glucocorticoid receptor (GR) is determined using a fluorescence polarisation (FP) assay utilising a recombinant ligand binding domain (LBD) of GR. The test compounds are assessed by their ability to displace a fluorescently tagged ligand and detection of the resulting decrease in fluorescence polarisation.

pIC50, pKi: −log10 of the molar value.

Sequence of glucocorticoid receptor (GR) recombinant ligand binding domain (LBD) (P04150 524-758): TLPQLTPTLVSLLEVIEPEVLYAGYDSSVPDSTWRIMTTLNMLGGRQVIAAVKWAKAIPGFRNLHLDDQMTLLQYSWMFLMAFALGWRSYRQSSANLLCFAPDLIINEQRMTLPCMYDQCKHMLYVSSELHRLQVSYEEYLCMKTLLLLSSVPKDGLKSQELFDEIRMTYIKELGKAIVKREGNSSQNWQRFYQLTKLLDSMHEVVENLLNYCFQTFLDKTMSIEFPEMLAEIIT

One may read the pKi as the Ki on a negative log10 scale, so that one unit is a factor of ten. The low end stands for a high Ki, the high end for a low Ki. A word on the pIC50: it is the IC50 on a negative log10 scale, so that one unit is a factor of ten. As to `Cc1cc2c(cnn2-c2ccc(F)cc2)cc1C1(Cc2ccc(F)cc2)CCN(S(C)(=O)=O)C1` (stereo not drawn) [Example 174], in experiment [1], the pKi is 7.55. Further, in experiment [2], the pIC50 was 8.05.
As to `Cc1cc2c(cnn2-c2ccc(F)cc2)cc1C1(Cc2cccc(C(F)(F)F)c2)CCN(S(C)(=O)=O)C1` (stereo not drawn) [Example 175], the pKi in experiment [1] is 7.70. In experiment [2], the pIC50 was 7.62.
For `Cc1cc2c(cnn2-c2ccc(F)cc2)cc1C1(Cc2cccc(C(F)(F)F)c2)CCN(S(=O)(=O)c2cnn(C)c2)C1` (stereo not drawn) [Example 176], in that order: 7.48 and 7.22.
`Cc1cc2c(cnn2-c2ccc(F)cc2)cc1C1(Cc2ccc(C(F)(F)F)cc2)CCN(S(C)(=O)=O)C1` (stereo not drawn) [Example 177]: in experiment [1], the pKi is 7.55. The pIC50 in experiment [2] was 6.67.
Consider `Cc1cc2c(cnn2-c2ccc(F)cc2)cc1C1(Cc2ccc(C(F)(F)F)cc2)CCN(S(=O)(=O)c2cnn(C)c2)C1` (stereo not drawn) [Example 178], for which the pKi in experiment [1] was 7.52. The pIC50 in experiment [2] was 6.71.
In experiment [1], `CCCn1cc(S(=O)(=O)N2CCC(Cc3nccs3)(c3cc4cnn(-c5ccc(F)cc5)c4cc3C)C2)cn1` (stereo not drawn) [Example 189] gave a pKi of 7.04. In addition, the negative logarithm of the IC50 (pIC50) in experiment [2] is 7.96.
The matching figures for `CC(=O)N1CCC(Cc2ccccc2)(c2cc3cnn(-c4ccc(F)cc4)c3cc2C)C1` (stereo not drawn) [Example 190, 1-(3-benzyl-3-(1-(4-fluorophenyl)-6-methyl-1H-indazol-5-yl)pyrrolidin-1-yl)ethan-1-one]: 7.26 and 8.30.
For `CC(=O)N1CCC(Cc2ccc(F)cc2)(c2cc3cnn(-c4ccc(F)cc4)c3cc2C)C1` (stereo not drawn) [Example 191, 1-(3-(4-fluorobenzyl)-3-(1-(4-fluorophenyl)-6-methyl-1H-indazol-5-yl)pyrrolidin-1-yl)ethan-1-one], in that order: 7.21 and 8.22.
As to `CC(=O)N1CCC(Cc2cccc(C(F)(F)F)c2)(c2cc3cnn(-c4ccc(F)cc4)c3cc2C)C1` (stereo not drawn) [Example 192, 1-(3-(1-(4-fluorophenyl)-6-methyl-1H-indazol-5-yl)-3-(3-(trifluoromethyl)benzyl)pyrrolidin-1-yl)ethan-1-one], the pKi in experiment [1] is 7.14. Also, the pIC50 in experiment [2] was 7.85.
The matching figures for `Cc1cc2c(cnn2-c2ccc(F)cc2)cc1C1(Cc2ccccc2)CCN(C(=O)c2ccccc2)C1` (stereo not drawn) [Example 193, (3-benzyl-3-(1-(4-fluorophenyl)-6-methyl-1H-indazol-5-yl)pyrrolidin-1-yl)(phenyl)methanone]: 7.60 and 7.55.
Consider `CC(=O)N1CCC(Cc2ccc(C(F)(F)F)cc2)(c2cc3cnn(-c4ccc(F)cc4)c3cc2C)C1` (stereo not drawn) [Example 194, 1-(3-(1-(4-fluorophenyl)-6-methyl-1H-indazol-5-yl)-3-(4-(trifluoromethyl)benzyl)pyrrolidin-1-yl)ethan-1-one], for which the pKi in experiment [1] is 6.99. Moreover, the pIC50 in experiment [2] is 6.96.
Regarding `Cc1cc2c(cnn2-c2ccc(F)cc2)cc1C1(Cc2ccccc2)CCN(S(=O)(=O)c2cnn(C)n2)C1` (stereo not drawn) [Example 213, 5-(3-benzyl-1-((2-methyl-2H-1,2,3-triazol-4-yl)sulfonyl)pyrrolidin-3-yl)-1-(4-fluorophenyl)-6-methyl-1H-indazole], the pKi in experiment [1] was 7.89. Further, the pIC50 in experiment [2] is 7.77.
For `Cc1cc2c(cnn2-c2ccc(F)cc2)cc1C1(Cc2ccccc2)CCN(S(=O)(=O)c2ccn(C)n2)C1` (stereo not drawn) [Example 215, 5-(3-benzyl-1-((1-methyl-1H-pyrazol-3-yl)sulfonyl)pyrrolidin-3-yl)-1-(4-fluorophenyl)-6-methyl-1H-indazole], the pKi in experiment [1] is 8.00. Moreover, the pIC50 in experiment [2] is 8.00.
As for `CCn1cc(S(=O)(=O)N2CCC(Cc3ccc(F)cc3)(c3cc4cnn(-c5ccc(F)cc5)c4cc3OC)C2)cn1` (stereo not drawn) [Example 217, 5-(1-((1-ethyl-1H-pyrazol-4-yl)sulfonyl)-3-(4-fluorobenzyl)pyrrolidin-3-yl)-1-(4-fluorophenyl)-6-methoxy-1H-indazole], the pKi in experiment [1] is 7.85. Further, the pIC50 in experiment [2] was 7.77.
`COc1cc2c(cnn2-c2ccc(F)cc2)cc1C1(Cc2ccccc2)CCN(S(=O)(=O)c2cnn(C)n2)C1` (stereo not drawn) [Example 218, 5-(3-benzyl-1-((2-methyl-2H-1,2,3-triazol-4-yl)sulfonyl)pyrrolidin-3-yl)-1-(4-fluorophenyl)-6-methoxy-1H-indazole] showed a pKi in experiment [1] of 8.00. Also, in experiment [2], the pIC50 was 7.85.
In experiment [1], `COc1cc2c(cnn2-c2ccc(F)cc2)cc1C1(Cc2ccc(F)cc2)CCN(S(=O)(=O)c2cnn(C)n2)C1` (stereo not drawn) [Example 219, 5-(3-(4-fluorobenzyl)-1-((2-methyl-2H-1,2,3-triazol-4-yl)sulfonyl)pyrrolidin-3-yl)-1-(4-fluorophenyl)-6-methoxy-1H-indazole] showed a pKi of 7.89. Further, the pIC50 in experiment [2] was 7.59.
On to `Cc1cc2c(cnn2-c2ccc(F)cc2)cc1C1(CC#CC2CC2)CCN(S(=O)(=O)c2cnn(C)c2)C1` (stereo not drawn) [Example 221, 5-(3-(3-cyclopropylprop-2-yn-1-yl)-1-((1-methyl-1H-pyrazol-4-yl)sulfonyl)pyrrolidin-3-yl)-1-(4-fluorophenyl)-6-methyl-1H-indazole], for which the pKi in experiment [1] was 7.35. The pIC50 in experiment [2] is 7.25.
Compound `CS(=O)(=O)N1CCC(Cc2ccccc2)(c2cc3cnn(-c4ccc(F)cc4)c3cc2Cl)C1` (stereo not drawn) [Example 222, 5-(3-benzyl-1-(methylsulfonyl)pyrrolidin-3-yl)-6-chloro-1-(4-fluorophenyl)-1H-indazole] gave a pKi in experiment [1] of 7.41. For the same compound, the pIC50 in experiment [2] is 7.96.
The matching figures for `Cn1cc(S(=O)(=O)N2CCC(Cc3ccccc3)(c3cc4cnn(-c5ccc(F)cc5)c4cc3Cl)C2)cn1` (stereo not drawn) [Example 223, 5-(3-benzyl-1-((1-methyl-1H-pyrazol-4-yl)sulfonyl)pyrrolidin-3-yl)-6-chloro-1-(4-fluorophenyl)-1H-indazole]: 7.42 and 7.85.
For `Cn1ncc(S(=O)(=O)N2CCC(Cc3ccccc3)(c3cc4cnn(-c5ccc(F)cc5)c4cc3Cl)C2)n1` (stereo not drawn) [Example 226, 5-(3-benzyl-1-((2-methyl-2H-1,2,3-triazol-4-yl)sulfonyl)pyrrolidin-3-yl)-6-chloro-1-(4-fluorophenyl)-1H-indazole], in that order: 7.89 and 7.68.
In experiment [1], `COc1cc2c(cnn2-c2ccc(F)cc2)cc1C1(Cc2ccccc2)CCN(C(=O)c2cncs2)C1` (stereo not drawn) [Example 231, (3-benzyl-3-(1-(4-fluorophenyl)-6-methoxy-1H-indazol-5-yl)pyrrolidin-1-yl)(thiazol-5-yl)methanone] gave a pKi of 7.32. The pIC50 in experiment [2] is 7.89.
In experiment [1], `Cc1cc2c(cnn2-c2ccc(F)cc2)cc1C1(Cc2ccccc2)CCN(C(=O)c2cncs2)C1` (stereo not drawn) [Example 232, (3-benzyl-3-(1-(4-fluorophenyl)-6-methyl-1H-indazol-5-yl)pyrrolidin-1-yl)(thiazol-5-yl)methanone] had a pKi of 7.43. The pIC50 in experiment [2] was 8.00.
In the case of `COc1cc2c(cnn2-c2ccc(F)cc2)cc1C1(Cc2ccccc2)CCN(C(=O)c2nccs2)C1` (stereo not drawn) [Example 233, (3-benzyl-3-(1-(4-fluorophenyl)-6-methoxy-1H-indazol-5-yl)pyrrolidin-1-yl)(thiazol-2-yl)methanone], the pKi in experiment [1] is 7.28. In experiment [2], the pIC50 is 7.15.
For `Cc1cc2c(cnn2-c2ccc(F)cc2)cc1C1(Cc2ccccc2)CCN(C(=O)c2cscn2)C1` (stereo not drawn) [Example 235], in that order: 7.47 and 7.92.

The record behind these values is US11787780B2 (CORCEPT THERAPEUTICS INCORPORATED, priority 2020, dated 2023).
